Like-named read-outs stand apart in the source and are kept apart here.
Columns and labels:
[1] = tested on: Daudi cell line (AID positive); test: Primary screening cell killing assay (Cell-Titer Glo, Day 7); format: cell-based; conditions: Homo sapiens, 168 h; Daudi cells (AID positive), cell death on Day 7; read-out: AID+ EC50
Description: (§1) Primary screening was a phenotypic screen that utilized the synthetic lethal interaction between AID and RAD51 to identify compounds that were both potent and on target. AID expressing cells are dependent upon RAD51 for survival; inhibiting RAD51 in AID positive cells results in a cytotoxic effect.
The first step was to set up a cell killing assay in the Daudi cell line (AID positive). A 96 well u-bottom plate was prepared by writing the experiment number, plate number, date and initials in the top right corner of the plate lid. With a sterile 300 ml reservoir, and 25 ml serological pipette, evaporation buffer media was pipetted into reservoir in 25 ml increments. Using the liquid handler, 150 ul of evaporation buffer media was pipetted from reservoir into rows A and H, and Columns 1 and 12 of the 96 well u-bottom plate. Cell cultures were counted to obtain the density of cells per ml, and the culture viability. The cell density information was used to obtain 1,000,000 cells from culture using a 5 mL serological pipette into an epi tube. The cell density information from the culture was used to calculate the number of cells and volume of media needed for the assay to seed 1250 cells in 130 ul of media per available culture well in the 96 well u-bottom plate. Rows B through F were used for cells (50 wells in total), with row G left for an empty media control. The calculation was overestimated by 10 mL to account for the dead volume in the 300 ml reservoir. Once the media volume was calculated, the appropriate volume of media was pipetted in 25 mL increments into the 250 mL bottle using a 25 mL serological pipette. The 250 ml bottle was capped tightly, and placed into a 37° C. water bath for 2 minutes. While the culture media was warming, 10 mL of fresh media was pipetted from the 500 mL culture media bottle into a sterile 25 mL reservoir. Using the Eppendorf multichannel pipette, 130 ul of media was piptted from the 25 mL reservoir into row G of the 96 well u-bottom plate. Once the 250 mL bottle of media was warmed, the volume of culture needed was pipetted into the bottle, and mixed gently with a 25 mL serological pipette as to not create bubbles, and then the contents of the bottle were pipetted into a new 300 mL reservoir. Using the liquid handler, 130 ul of culture was pipetted from the 300 mL reservoir into rows B through F of the 96 well u-bottom plate. Once the culture was added, the plate was placed into a 37° C. incubator until the compound master plate was prepared for use.
Two 96 well u-bottom plates were prepared by writing the master plate name in the upper right corner of the plate lid. Labeling one DMSO master and the other Media Master. The compounds of interest were obtained from the laboratory freezer, and placed into a 25 well storage box with a lid, and set the box aside. The compounds were vortexed after thawing but before use. Using an automatic multichannel pipette, 20 ul of 100% DMSO was pipetted into wells B3-B11 through G3-G11 of the DMSO master plate. For each compound on the master plate, 50 ul of the compound were pipetted in the appropriate well of row 2 (reference plate map to determine appropriate well). A serial dilution was prepared beginning by aspirating 20 ul from row 2 and mixing with row 3, repeating until row 11 was reached. Using the liquid handler, 194 ul of Daudi media was dispensed into wells B2-B11 through G2-G11 of the Media master plate. Using the liquid handler, 6 ul from the DMSO master plate was aspirated and dispensed into the media master plate, mixing 100 ul twice.
Compounds from master plate were then added to the culture plate. The culture plates were removed from the incubator, and set inside the biosafety cabinet. Using a liquid handler, 20 ul from wells B2 to B11 through G2 to G11 of master plate were aspirated, and dispensed into wells B2 to B11 through G2 to G11 of culture plate. This set was continued with each culture plate. […]

[2] = tested on: WI-38 cells (AID negative); test: Primary screening cell killing assay repeated in AID negative cells; format: cell-based, Human; conditions: Homo sapiens; WI-38 cells (AID negative); read-out: AID− EC50
Description: as §1
Percent cell death and EC50 values were calculated by comparing the cell viability of the compound treated wells to the non-treated wells. Normalized RLU values were obtained by subtracting the media well values from each of the wells in the same column, and then dividing that value by the DMSO treated cells values. The percent kill was then calculated by subtracting the normalized RLU value from 1 and multiplying by 100. The average normalized percent kill value and standard error of the mean was then calculated. The kill values were then inputted into Prism with the corresponding standard errors. In Prism a non-linear regression line was plotted with the data points using a semi-log scale, and the EC50 value was calculated.
The activity of the claimed compounds was measured in a variety of cell lines with different expression levels of activation induced cytidine deaminase (AICDA). The potency assay was repeated in all of the listed cell lines and the EC50 values recorded.

[3] = Bi-directional Caco-2 permeability; format: in vitro ADME; conditions: human; for Papp A→B / Papp B→A: Caco-2, 37 C, up to 90 minutes; for Papp A→B: apical to basolateral, read-out: AB Papp (cm/sec × 10^6); for Papp B→A: basolateral to apical, read-out: BA Papp (cm/sec × 10^6); for efflux ratio: Caco-2 efflux ratio, read-out: BA/AB Ratio
Description: Bi-directional Caco-2 permeability was assayed. Caco-2 cells were seeded onto permeable polycarbonate supports and allowed to differentiate for about 3 weeks prior to being used in the assays. The cells were then exposed to the compounds from either the apical or basolateral sides and incubated at 37 C for up to 90 minutes under light agitation. Compound transport was then measured using LC/MS/MS analysis at 30, 60, and 90 minutes.

[4] = Caco-2, apical to basolateral, read-out: AB Recovery %
[5] = Caco-2, basolateral to apical, read-out: BA Recovery %

SMILES | recovery at 90 min [3, 4] | recovery at 90 min [3, 5] | Papp A→B [3] | Papp B→A [3] | efflux ratio [3] | EC50 [1] | EC50 [2]
CC(C)OC(=O)NC1CCC(c2ncc(-c3ccc(NC(=O)N[C@H](C)c4ccccn4)cc3S(=O)(=O)NC(C)(C)C)s2)CC1 (stereo partly drawn) [Compound 30] | 79.8% | 116% | – | – | – | ≤ 100 nM | > 1000 nM
CC(C)(C)NS(=O)(=O)c1cc(NC(=O)NCc2ccccc2)ccc1-c1cnc(C2CCC(NC(=O)OC(C)(C)C)CC2)s1 (stereo not drawn) [Compound 10] | 59.9% | 87.2% | 1.2 ×10⁻⁶ cm/s | 1.5 ×10⁻⁶ cm/s | 1.3 | ≤ 100 nM | > 1000 nM
CC(C)OC(=O)NC1CCC(c2ncc(-c3ccc(NC(=O)N[C@@H](C)c4ccccc4)cc3S(=O)(=O)NC(C)(C)C)s2)CC1 (stereo partly drawn) [Compound 26] | – | – | – | – | – | ≤ 100 nM | > 1000 nM
CC(C)OC(=O)NC1CCC(c2ncc(-c3ccc(NC(=O)NCc4ccccc4)cc3S(=O)(=O)NC(C)(C)CO)s2)CC1 (stereo not drawn) [Compound 74] | – | – | – | – | – | ≤ 100 nM | > 1000 nM

Further lines, with some results ahead:

recovery at 90 min [3, 4] | recovery at 90 min [3, 5] | Papp A→B [3] | Papp B→A [3] | efflux ratio [3] | SMILES | EC50 [1] | EC50 [2]
65.3% | 80.7% | 8.7 ×10⁻⁶ cm/s | 12.4 ×10⁻⁶ cm/s | 1.4 | CC(C)(C)NS(=O)(=O)c1cc(NC(=O)NCc2ccccc2)ccc1-c1cnc(C2CCC(NC(=O)OC3COC3)CC2)s1 (stereo not drawn) [Compound 47] | ≤ 100 nM | > 1000 nM
61.9% | 86.8% | 1.3 ×10⁻⁶ cm/s | 3.5 ×10⁻⁶ cm/s | 2.7 | CC(C)OC(=O)NC1CCC(c2nc(F)c(-c3ccc(NC(=O)NCc4ccccc4)cc3S(=O)(=O)NC(C)(C)C)s2)CC1 (stereo not drawn) [Compound 57] | ≤ 100 nM | > 1000 nM
79.7% | 95.9% | – | – | – | CC(C)OC(=O)N[C@@H]1CCC(c2ncc(-c3ccc(NC(=O)NCc4ccccc4)cc3S(=O)(=O)NC(C)(C)C)s2)NC1 (stereo partly drawn) [Compound 64] | ≤ 100 nM | > 1000 nM
